Earlier results as cited in publication PMC8513935.

Columns and labels:
[1] = log P octanol/water from commercial databases, averaged (the ESI); conditions: Octanol (wet), 25 C
[2] = experimental, compiled by the authors from the literature (the ESI cites the sources)
[3] = derived by the authors as gas->solvent minus gas->water (a hypothetical dry solvent; the ESI), not a two-phase measurement

## CCCCCCCCCCCCCC
[1]
  log K of transfer, water to solvent: 8 log10 K

## CC1CCCCC1
[1]
  log K of transfer, water to solvent: 3.88 log10 K
[2]; Butanone, 25 C
  log K of transfer, gas to solvent: 3.02 log10 K
[2]; Butyronitrile, 25 C
  log K of transfer, gas to solvent: 2.99 log10 K
[2]; Heptan-1-ol, 25 C
  log K of transfer, gas to solvent: 3.05 log10 K
[2]; Hexadecane, 25 C
  log K of transfer, gas to solvent: 3.32 log10 K
[2]; Octan-1-ol, 25 C
  log K of transfer, gas to solvent: 3.05 log10 K
[2]; Propan-2-ol, 25 C
  log K of transfer, gas to solvent: 2.78 log10 K
[2]; Propanone, 25 C
  log K of transfer, gas to solvent: 2.88 log10 K
[2]; Propionitrile, 25 C
  log K of transfer, gas to solvent: 2.85 log10 K
[2]; Tetrahydrofuran, 25 C
  log K of transfer, gas to solvent: 3.42 log10 K
[2]; Water, 25 C
  log K of transfer, gas to solvent: -1.25 log10 K

## CC(C)(C)C
[3]; Hexadecane, 25 C
  log K of transfer, water to solvent: 3.66 log10 K
[3]; Hexane, 25 C
  log K of transfer, water to solvent: 3.87 log10 K
[3]; Methanol, 25 C
  log K of transfer, water to solvent: 3.24 log10 K
[2]; Hexadecane, 25 C
  log K of transfer, gas to solvent: 1.82 log10 K
[2]; Hexane, 25 C
  log K of transfer, gas to solvent: 2.03 log10 K
[2]; Methanol, 25 C
  log K of transfer, gas to solvent: 1.4 log10 K
[2]; Water, 25 C
  log K of transfer, gas to solvent: -1.84 log10 K

## Cc1ccncc1
[3]; CCl4, 25 C
  log K of transfer, water to solvent: 0.84 log10 K
[3]; Hexadecane, 25 C
  log K of transfer, water to solvent: 0.02 log10 K
[2]; CCl4, 25 C
  log K of transfer, gas to solvent: 4.46 log10 K
[2]; Hexadecane, 25 C
  log K of transfer, gas to solvent: 3.64 log10 K
[2]; Water, 25 C
  log K of transfer, gas to solvent: 3.62 log10 K

## CN(C)C=O
[3]; Acetone, 25 C
  log K of transfer, water to solvent: -1.02 log10 K
[3]; Butanone, 25 C
  log K of transfer, water to solvent: -1.03 log10 K
[3]; Hexadecane, 25 C
  log K of transfer, water to solvent: -2.56 log10 K
[3]; Octan-1-ol(dry), 25 C
  log K of transfer, water to solvent: -1.35 log10 K
[3]; Tetrahydrofuran, 25 C
  log K of transfer, water to solvent: -1.34 log10 K
[2]; Butanone, 25 C
  log K of transfer, gas to solvent: 4.7 log10 K
[2]; Hexadecane, 25 C
  log K of transfer, gas to solvent: 3.17 log10 K
[2]; Octan-1-ol, 25 C
  log K of transfer, gas to solvent: 4.38 log10 K
[2]; Propanone, 25 C
  log K of transfer, gas to solvent: 4.71 log10 K
[2]; Tetrahydrofuran, 25 C
  log K of transfer, gas to solvent: 4.39 log10 K
[2]; Water, 25 C
  log K of transfer, gas to solvent: 5.73 log10 K

## CCCCC
[3]; 1,2-Dichloroethane, 25 C
  log K of transfer, water to solvent: 3.69 log10 K
[3]; Acetone, 25 C
  log K of transfer, water to solvent: 3.68 log10 K
[3]; Acetonitrile, 25 C
  log K of transfer, water to solvent: 3.23 log10 K
[3]; Benzene, 25 C
  log K of transfer, water to solvent: 3.89 log10 K
[3]; Butan-1-ol, 25 C
  log K of transfer, water to solvent: 3.68 log10 K
[3]; Butan-2-ol, 25 C
  log K of transfer, water to solvent: 3.64 log10 K
[3]; Butanone, 25 C
  log K of transfer, water to solvent: 3.77 log10 K
[3]; Butyronitrile, 25 C
  log K of transfer, water to solvent: 3.62 log10 K
[3]; CCl4, 25 C
  log K of transfer, water to solvent: 4.06 log10 K
[3]; Chlorobenzene, 25 C
  log K of transfer, water to solvent: 4.13 log10 K
[3]; Chloroform, 25 C
  log K of transfer, water to solvent: 4.06 log10 K
[3]; Cyclohexane, 25 C
  log K of transfer, water to solvent: 4.27 log10 K
[3]; Cyclohexanone, 25 C
  log K of transfer, water to solvent: 3.68 log10 K
[3]; Di-n-butyl ether, 25 C
  log K of transfer, water to solvent: 4.03 log10 K
[3]; Dichloromethane, 25 C
  log K of transfer, water to solvent: 3.94 log10 K
[3]; Ethanol, 25 C
  log K of transfer, water to solvent: 3.48 log10 K
[3]; Heptan-1-ol, 25 C
  log K of transfer, water to solvent: 3.65 log10 K
[3]; Hexadecane, 25 C
  log K of transfer, water to solvent: 3.86 log10 K
[3]; Hexan-1-ol, 25 C
  log K of transfer, water to solvent: 3.67 log10 K
[3]; Hexane, 25 C
  log K of transfer, water to solvent: 4.14 log10 K
[3]; Methanol, 25 C
  log K of transfer, water to solvent: 3.36 log10 K
[3]; Octan-1-ol(dry), 25 C
  log K of transfer, water to solvent: 3.65 log10 K
[3]; Pentan-1-ol, 25 C
  log K of transfer, water to solvent: 3.64 log10 K
[3]; Perfluoroalkane, 25 C
  log K of transfer, water to solvent: 3.25 log10 K
[3]; Propan-1-ol, 25 C
  log K of transfer, water to solvent: 3.51 log10 K
[3]; Propan-2-ol, 25 C
  log K of transfer, water to solvent: 3.55 log10 K
[3]; Tetrahydrofuran, 25 C
  log K of transfer, water to solvent: 4.03 log10 K
[3]; Toluene, 25 C
  log K of transfer, water to solvent: 4.01 log10 K
[2]; 1,2-Dichloroethane, 25 C
  log K of transfer, gas to solvent: 1.99 log10 K
[2]; Acetonitrile, 25 C
  log K of transfer, gas to solvent: 1.53 log10 K
[2]; Benzene, 25 C
  log K of transfer, gas to solvent: 2.19 log10 K
[2]; Butan-1-ol, 25 C
  log K of transfer, gas to solvent: 1.98 log10 K
[2]; Butan-2-ol, 25 C
  log K of transfer, gas to solvent: 1.94 log10 K
[2]; Butanone, 25 C
  log K of transfer, gas to solvent: 2.07 log10 K
[2]; Butyronitrile, 25 C
  log K of transfer, gas to solvent: 1.92 log10 K
[2]; CCl4, 25 C
  log K of transfer, gas to solvent: 2.36 log10 K
[2]; Chlorobenzene, 25 C
  log K of transfer, gas to solvent: 2.43 log10 K
[2]; Chloroform, 25 C
  log K of transfer, gas to solvent: 2.36 log10 K
[2]; Cyclohexane, 25 C
  log K of transfer, gas to solvent: 2.57 log10 K
[2]; Cyclohexanone, 25 C
  log K of transfer, gas to solvent: 1.98 log10 K
[2]; Di-n-butyl ether, 25 C
  log K of transfer, gas to solvent: 2.33 log10 K
[2]; Dichloromethane, 25 C
  log K of transfer, gas to solvent: 2.24 log10 K
[2]; Ethanol, 25 C
  log K of transfer, gas to solvent: 1.78 log10 K
[2]; Heptan-1-ol, 25 C
  log K of transfer, gas to solvent: 1.95 log10 K
[2]; Hexadecane, 25 C
  log K of transfer, gas to solvent: 2.16 log10 K
[2]; Hexan-1-ol, 25 C
  log K of transfer, gas to solvent: 1.97 log10 K
[2]; Hexane, 25 C
  log K of transfer, gas to solvent: 2.44 log10 K
[2]; Methanol, 25 C
  log K of transfer, gas to solvent: 1.66 log10 K
[2]; Octan-1-ol, 25 C
  log K of transfer, gas to solvent: 1.95 log10 K
[2]; Pentan-1-ol, 25 C
  log K of transfer, gas to solvent: 1.94 log10 K
[2]; Perfluoroalkane, 25 C
  log K of transfer, gas to solvent: 1.55 log10 K
[2]; Propan-1-ol, 25 C
  log K of transfer, gas to solvent: 1.81 log10 K
[2]; Propan-2-ol, 25 C
  log K of transfer, gas to solvent: 1.85 log10 K
[2]; Propanone, 25 C
  log K of transfer, gas to solvent: 1.98 log10 K
[2]; Tetrahydrofuran, 25 C
  log K of transfer, gas to solvent: 2.33 log10 K
[2]; Toluene, 25 C
  log K of transfer, gas to solvent: 2.3 log10 K
[2]; Water, 25 C
  log K of transfer, gas to solvent: -1.7 log10 K

## CCCCCCCCCCCCCCCCCCO
[3]; Decan-1-ol, 25 C
  log K of transfer, water to solvent: 9.12 log10 K
[3]; Di-n-butyl ether, 25 C
  log K of transfer, water to solvent: 8.85 log10 K
[3]; Diethyl Ether, 25 C
  log K of transfer, water to solvent: 9.2 log10 K
[3]; Hexadecane, 25 C
  log K of transfer, water to solvent: 7.88 log10 K
[3]; Hexan-1-ol, 25 C
  log K of transfer, water to solvent: 9.16 log10 K
[3]; Octan-1-ol(dry), 25 C
  log K of transfer, water to solvent: 9.15 log10 K
[3]; Propan-2-ol, 25 C
  log K of transfer, water to solvent: 9.12 log10 K
[2]; Decan-1-ol, 25 C
  log K of transfer, gas to solvent: 10.9 log10 K
[2]; Di-n-butyl ether, 25 C
  log K of transfer, gas to solvent: 10.6 log10 K
[2]; Diethyl Ether, 25 C
  log K of transfer, gas to solvent: 11 log10 K
[2]; Hexadecane, 25 C
  log K of transfer, gas to solvent: 9.66 log10 K
[2]; Hexan-1-ol, 25 C
  log K of transfer, gas to solvent: 10.9 log10 K
[2]; Octan-1-ol, 25 C
  log K of transfer, gas to solvent: 10.9 log10 K
[2]; Propan-2-ol, 25 C
  log K of transfer, gas to solvent: 10.9 log10 K
[2]; Water, 25 C
  log K of transfer, gas to solvent: 1.78 log10 K

## CCCCCc1ccccc1
[3]; Hexadecane, 25 C
  log K of transfer, water to solvent: 5.06 log10 K
[2]; Hexadecane, 25 C
  log K of transfer, gas to solvent: 5.23 log10 K
[2]; Water, 25 C
  log K of transfer, gas to solvent: 0.17 log10 K

## CCCCCF
[3]; Hexadecane, 25 C
  log K of transfer, water to solvent: 2.65 log10 K
[2]; Hexadecane, 25 C
  log K of transfer, gas to solvent: 2.44 log10 K
[2]; Water, 25 C
  log K of transfer, gas to solvent: -0.21 log10 K

## C1CCNC1
[1]
  log K of transfer, water to solvent: 0.465 log10 K
